Results published in US6737383B1, “Herbicidal oxadiazolidines” (priority 1999, dated 2004).

Columns and labels:
bedstraw = assay: Test B pre/postemergence bedstraw; assay type: in vivo, Galium aparine
In short: (§1)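 Response is a visual 0-to-10 score relative to untreated plants, where 0 means no effect and 10 means complete control, taken twelve to sixteen days after application. Treatments went onto soil at planting and onto foliage of 1- to 4-leaf plants, using a surfactant-containing non-phytotoxic solvent.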

blackgrass = assay: Test B pre/postemergence blackgrass; assay type: in vivo, Alopecurus myosuroides
In short: as §1

surinam grass = assay: Test B pre/postemergence surinam grass; assay type: in vivo, Brachiaria decumbens
In short: as §1

cocklebur = assay: Test B pre/postemergence cocklebur; assay type: in vivo, Xanthium strumarium
In short: as §1

corn = assay: Test B pre/postemergence corn; assay type: in vivo, Zea mays
In short: as §1

crabgrass = assay: Test B pre/postemergence crabgrass; assay type: in vivo, Digitaria sanguinalis
In short: as §1

giant foxtail = assay: Test B pre/postemergence giant foxtail; assay type: in vivo, Setaria faberii
In short: as §1

morningglory = assay: Test B pre/postemergence morningglory; assay type: in vivo, Ipomoea hederacea
In short: as §1

velvetleaf = assay: Test B pre/postemergence velvetleaf; assay type: in vivo, Abutilon theophrasti
In short: as §1

wheat = assay: Test B pre/postemergence wheat; assay type: in vivo, Triticum aestivum
In short: as §1

wild oat = assay: Test B pre/postemergence wild oat; assay type: in vivo, Avena fatua
In short: as §1

purple nutsedge = assay: Test B pre/postemergence purple nutsedge; assay type: in vivo, Cyperus rotundus; settings: Preemergence
In short: as §1

rice = assay: Test B flood test rice; assay type: in vivo, Oryza sativa
In short: (§2)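 Read-out is a visual response score from 0 (no effect) to 10 (complete control), assigned by comparison with untreated controls. Treatment was applied at the 2-leaf stage, and plants stayed in the greenhouse for twelve to sixteen days before scoring.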

smallflower flatsedge = assay: Test B flood test smallflower flatsedge; assay type: in vivo, Cyperus difformis
In short: as §2

duck salad = assay: Test B flood test duck salad; assay type: in vivo, Heteranthera limosa
In short: as §2

bamyardgrass = assay: Test B flood test barnyardgrass; assay type: in vivo, Echinochloa crus-galli
In short: as §2

[1] = Postemergence, Rate 250 g/ha, scale 0 to 10, 0 no effect, 10 complete control
[2] = Postemergence, Rate 1000 g/ha, scale 0 to 10 (0 no effect, 10 complete control)
[3] = Preemergence, Rate 125 g/ha, scale 0 to 10 (0 no effect, 10 complete control)
[4] = Preemergence, Rate 250 g/ha, scale of 0 to 10 where 0 is no effect and 10 is complete control
[5] = Preemergence, Rate 500 g/ha, scale 0 (no effect) to 10 (complete control)
[6] = Rate 125 g/ha, Postemergence, scale 0 to 10, 0 no effect, 10 complete control
[7] = Rate 500 g/ha, Postemergence, 0 to 10 scale (0 no effect, 10 complete control)
[8] = Rate 1000 g/ha, Preemergence, scale 0 to 10 (0 no effect, 10 complete control)
[9] = Rate 125 g/ha, Postemergence section (flood test species), scale 0 to 10, 0 no effect, 10 complete control
[10] = Rate 500 g/ha, Postemergence section of Table B, 0 to 10 scale (0 no effect, 10 complete control)
[11] = flood test, listed under Postemergence, Rate 250 g/ha, scale 0 to 10, 0 no effect, 10 complete control

Question: For CC(C)N(C(=O)n1oc(=O)n(-c2ccccc2Cl)c1=O)c1ccc(F)cc1 [Compound 8], which “Bedstraw plant response rating” value (bedstraw; [1]) is on record?
Answer: Its value is 2.

Question: What about the “Bedstraw plant response rating” value (bedstraw; [2]) of the same molecule?
Answer: Its value is 3.

Question: What about the “Plant response rating, Bedstraw” value (bedstraw; [3]) of the same molecule?
Answer: The value was 0.

Question: And the “Plant response rating, Bedstraw” value (bedstraw; [4])?
Answer: The value was 0.

Question: What about the “Bedstraw plant response rating” value (bedstraw; [5]) of the same molecule?
Answer: Its value is 0.

Question: And the “Bedstraw plant response rating” value (bedstraw; [6])?
Answer: The value was 2.

Question: And the “Bedstraw plant response rating” value (bedstraw; [7])?
Answer: The value was 3.

Question: What about the “Plant response rating, Bedstraw” value (bedstraw; [8]) of the same molecule?
Answer: Its value is 0.

Question: What about the “Blackgrass plant response rating” value (blackgrass; [1]) of the same molecule?
Answer: Its value is 2.

Question: And the “Blackgrass plant response rating” value (blackgrass; [2])?
Answer: The value was 5.

Question: And the “Plant response rating, Blackgrass” value (blackgrass; [3])?
Answer: The value was 0.

Question: And the “Plant response rating, Blackgrass” value (blackgrass; [4])?
Answer: The value was 0.

Question: And the “Blackgrass plant response rating” value (blackgrass; [5])?
Answer: Its value is 0.

Question: What about the “Blackgrass plant response rating” value (blackgrass; [6]) of the same molecule?
Answer: The value was 0.

Question: What about the “Blackgrass plant response rating” value (blackgrass; [7]) of the same molecule?
Answer: Its value is 2.

Question: And the “Plant response rating, Blackgrass” value (blackgrass; [8])?
Answer: Its value is 4.

Question: And the “B. signalgrass plant response rating” value (surinam grass; [1])?
Answer: Its value is 0.

Question: What about the “B. signalgrass plant response rating” value (surinam grass; [2]) of the same molecule?
Answer: The value was 3.

Question: What about the “Plant response rating, B. signalgrass” value (surinam grass; [3]) of the same molecule?
Answer: The value was 0.

Question: And the “Plant response rating, B. signalgrass” value (surinam grass; [4])?
Answer: Its value is 4.

Question: What about the “B. signalgrass plant response rating” value (surinam grass; [5]) of the same molecule?
Answer: The value was 5.

Question: And the “B. signalgrass plant response rating” value (surinam grass; [6])?
Answer: Its value is 0.

Question: What about the “B. signalgrass plant response rating” value (surinam grass; [7]) of the same molecule?
Answer: The value was 0.

Question: And the “Plant response rating, B. signalgrass” value (surinam grass; [8])?
Answer: Its value is 6.

Question: And the “Cocklebur plant response rating” value (cocklebur; [1])?
Answer: The value was 0.

Question: What about the “Cocklebur plant response rating” value (cocklebur; [2]) of the same molecule?
Answer: The value was 2.

Question: What about the “Plant response rating, Cocklebur” value (cocklebur; [3]) of the same molecule?
Answer: Its value is 0.

Question: And the “Plant response rating, Cocklebur” value (cocklebur; [4])?
Answer: Its value is 0.

Question: And the “Cocklebur plant response rating” value (cocklebur; [5])?
Answer: The value was 0.

Question: And the “Cocklebur plant response rating” value (cocklebur; [6])?
Answer: The value was 0.

Question: What about the “Cocklebur plant response rating” value (cocklebur; [7]) of the same molecule?
Answer: Its value is 1.

Question: What about the “Plant response rating, Cocklebur” value (cocklebur; [8]) of the same molecule?
Answer: Its value is 0.

Question: What about the “Corn plant response rating” value (corn; [1]) of the same molecule?
Answer: The value was 0.

Question: And the “Corn plant response rating” value (corn; [2])?
Answer: Its value is 3.

Question: And the “Plant response rating, Corn” value (corn; [3])?
Answer: Its value is 0.

Question: What about the “Plant response rating, Corn” value (corn; [4]) of the same molecule?
Answer: Its value is 0.

Question: And the “Corn plant response rating” value (corn; [5])?
Answer: The value was 0.

Question: And the “Corn plant response rating” value (corn; [6])?
Answer: The value was 0.

Question: What about the “Corn plant response rating” value (corn; [7]) of the same molecule?
Answer: The value was 0.

Question: What about the “Plant response rating, Corn” value (corn; [8]) of the same molecule?
Answer: The value was 3.

Question: And the “Crabgrass plant response rating” value (crabgrass; [1])?
Answer: Its value is 0.

Question: What about the “Crabgrass plant response rating” value (crabgrass; [2]) of the same molecule?
Answer: Its value is 6.

Question: What about the “Crabgrass plant response rating” value (crabgrass; [5]) of the same molecule?
Answer: The value was 6.

Question: What about the “Crabgrass plant response rating” value (crabgrass; [6]) of the same molecule?
Answer: The value was 0.

Question: And the “Crabgrass plant response rating” value (crabgrass; [7])?
Answer: Its value is 0.

Question: And the “Plant response rating, Crabgrass” value (crabgrass; [8])?
Answer: The value was 9.

Question: What about the “Giant foxtail plant response rating” value (giant foxtail; [1]) of the same molecule?
Answer: Its value is 0.

Question: And the “Giant foxtail plant response rating” value (giant foxtail; [2])?
Answer: Its value is 4.

Question: What about the “Plant response rating, Giant foxtail” value (giant foxtail; [3]) of the same molecule?
Answer: The value was 5.

Question: What about the “Plant response rating, Giant foxtail” value (giant foxtail; [4]) of the same molecule?
Answer: The value was 9.

Question: And the “Giant foxtail plant response rating” value (giant foxtail; [5])?
Answer: The value was 10.

Question: What about the “Giant foxtail plant response rating” value (giant foxtail; [6]) of the same molecule?
Answer: The value was 0.

Question: What about the “Giant foxtail plant response rating” value (giant foxtail; [7]) of the same molecule?
Answer: The value was 2.

Question: What about the “Plant response rating, Giant foxtail” value (giant foxtail; [8]) of the same molecule?
Answer: The value was 10.

Question: What about the “Morningglory plant response rating” value (morningglory; [1]) of the same molecule?
Answer: Its value is 0.

Question: And the “Morningglory plant response rating” value (morningglory; [2])?
Answer: The value was 6.

Question: And the “Plant response rating, Morningglory” value (morningglory; [3])?
Answer: The value was 0.

Question: And the “Plant response rating, Morningglory” value (morningglory; [4])?
Answer: Its value is 0.

Question: What about the “Morningglory plant response rating” value (morningglory; [5]) of the same molecule?
Answer: The value was 0.

Question: What about the “Morningglory plant response rating” value (morningglory; [6]) of the same molecule?
Answer: The value was 0.

Question: What about the “Morningglory plant response rating” value (morningglory; [7]) of the same molecule?
Answer: The value was 2.

Question: What about the “Plant response rating, Morningglory” value (morningglory; [8]) of the same molecule?
Answer: The value was 0.

Question: And the “Velvetleaf plant response rating” value (velvetleaf; [1])?
Answer: The value was 0.

Question: What about the “Velvetleaf plant response rating” value (velvetleaf; [2]) of the same molecule?
Answer: The value was 1.

Question: What about the “Plant response rating, Velvetleaf” value (velvetleaf; [3]) of the same molecule?
Answer: The value was 0.

Question: What about the “Velvetleaf plant response rating” value (velvetleaf; [5]) of the same molecule?
Answer: The value was 0.

Question: And the “Velvetleaf plant response rating” value (velvetleaf; [6])?
Answer: Its value is 0.

Question: And the “Plant response rating, Velvetleaf” value (velvetleaf; [8])?
Answer: Its value is 4.

Question: What about the “Wheat plant response rating” value (wheat; [1]) of the same molecule?
Answer: The value was 0.

Question: And the “Wheat plant response rating” value (wheat; [2])?
Answer: Its value is 3.

Question: What about the “Plant response rating, Wheat” value (wheat; [3]) of the same molecule?
Answer: The value was 0.

Question: And the “Plant response rating, Wheat” value (wheat; [4])?
Answer: The value was 0.

Question: And the “Wheat plant response rating” value (wheat; [5])?
Answer: Its value is 0.

Question: And the “Wheat plant response rating” value (wheat; [6])?
Answer: Its value is 0.

Question: And the “Plant response rating, Wheat” value (wheat; [8])?
Answer: Its value is 0.

Question: And the “Wild oats plant response rating” value (wild oat; [1])?
Answer: Its value is 0.

Question: What about the “Wild oats plant response rating” value (wild oat; [2]) of the same molecule?
Answer: The value was 3.

Question: And the “Plant response rating, Wild oats” value (wild oat; [3])?
Answer: The value was 0.

Question: What about the “Plant response rating, Wild oats” value (wild oat; [4]) of the same molecule?
Answer: Its value is 0.

Question: What about the “Wild oats plant response rating” value (wild oat; [5]) of the same molecule?
Answer: Its value is 2.

Question: And the “Wild oats plant response rating” value (wild oat; [6])?
Answer: Its value is 0.

Question: What about the “Plant response rating, Wild oats” value (wild oat; [8]) of the same molecule?
Answer: The value was 3.

Question: And the “Plant response rating, Nutsedge” value (purple nutsedge; Rate 125 g/ha, scale 0 to 10 (0 no effect, 10 complete control))?
Answer: The value was 0.

Question: And the “Plant response rating, Nutsedge” value (purple nutsedge; Rate 250 g/ha, scale of 0 to 10 where 0 is no effect and 10 is complete control)?
Answer: The value was 0.

Question: And the “Nutsedge plant response rating” value (purple nutsedge; Rate 500 g/ha, scale 0 (no effect) to 10 (complete control))?
Answer: The value was 0.

Question: And the “Plant response rating, Nutsedge” value (purple nutsedge; Rate 1000 g/ha, scale 0 to 10 (0 no effect, 10 complete control))?
Answer: Its value is 0.

Question: What about the “Rice plant response rating” value (rice; [2]) of the same molecule?
Answer: Its value is 0.

Question: And the “Rice plant response rating” value (rice; [9])?
Answer: The value was 0.

Question: What about the “Rice plant response rating” value (rice; [10]) of the same molecule?
Answer: Its value is 0.

Question: What about the “Rice plant response rating” value (rice; [11]) of the same molecule?
Answer: The value was 0.

Question: And the “S. Flatsedge plant response rating” value (smallflower flatsedge; [2])?
Answer: Its value is 0.

Question: And the “S. Flatsedge plant response rating” value (smallflower flatsedge; [9])?
Answer: The value was 0.

Question: And the “S. Flatsedge plant response rating” value (smallflower flatsedge; [11])?
Answer: Its value is 0.

Question: What about the “Ducksalad plant response rating” value (duck salad; [2]) of the same molecule?
Answer: The value was 0.

Question: What about the “Ducksalad plant response rating” value (duck salad; [9]) of the same molecule?
Answer: The value was 0.

Question: And the “Ducksalad plant response rating” value (duck salad; [10])?
Answer: The value was 0.

Question: What about the “Ducksalad plant response rating” value (duck salad; [11]) of the same molecule?
Answer: The value was 0.

Question: And the “Barnyardgrass plant response rating” value (bamyardgrass; [2])?
Answer: The value was 0.

Question: What about the “Barnyardgrass plant response rating” value (bamyardgrass; [9]) of the same molecule?
Answer: Its value is 0.

Question: What about the “Barnyardgrass plant response rating” value (bamyardgrass; [10]) of the same molecule?
Answer: The value was 0.

Question: What about the “Barnyardgrass plant response rating” value (bamyardgrass; [11]) of the same molecule?
Answer: The value was 0.
